Columns and labels:
[1] = tested on: ex vivo human skin samples; test: In vitro skin absorption of vinblastine (receptor fluid, liquid scintillation counting); settings: for vinblastine skin absorption (amount in receptor fluid): 16 hours
human skin samples [2] = test: Skin distribution of Rhodamine 123 by epifluorescence microscopy; assay type: in vitro ADME; settings: skin samples treated with Verapamil, data not shown
human skin samples [3] = test: In vitro cutaneous absorption of LTC4 (receptor fluid, liquid scintillation counting); assay type: in vitro ADME; settings: 68.5 nM LTC4 10 μL/cm2, 6 hours
Method: Tritium labeled LTC4 was used. The concentration of the LTC4 solution used was 68.5 nM (0.01 mCi/mL).
At the end of the period of treatment with the inhibitor, the skin samples, both the control samples and those treated with the inhibitor, were treated with the LTC4 solution. […] The duration of the treatment with LTC4 was 6 hours.
The in vitro LTC4 skin absorption experiments were performed with fresh skin samples originating from three different donors. The experiments were performed in 6-well Transwell plates, with a 1 cm^2 area of treated skin and receptor fluid volumes of 1.5 mL. The treatment volume for the skin surface was 10 μL, corresponding to 0.69 […] and 222 000 dpm. Three different experiments were performed with skin samples originating from three different donors. In each experiment, each condition was performed in triplicate (N=9 in total).

human skin samples [4] = test: Cutaneous distribution of LTC4 by autoradiography of skin sections; assay type: in vitro ADME
Method: The distribution of Vinblastine in the skin was analyzed by autoradiography. Skin samples were placed in a tissue holder and freeze-mounted in cryomount embedding medium. The frozen blocks were sectioned into slices 8-10 μm thick, perpendicular to the epidermal surface in a cryomicrotome (Thermo Electron). The sections were collected on glass slides and dried. Cryosections were placed on a Fuji imaging plate type Bas-III (20×40 cm) in a Fujix Bas cassette 2040 during 24 hours to 5 days. The exposed plate was scanned with a Bio-Imaging analyzer (Fujix BAS 2000). The scanned images were analyzed using TINA software.
The distribution of the LTC4 in the skin was analyzed by autoradiography. The experimental conditions are identical to those described previously for vinblastine.

## CC[C@]1(O)C[C@@H]2CN(CCc3c([nH]c4ccccc34)[C@@](C(=O)OC)(c3cc4c(cc3OC)N(C)[C@H]3[C@@](O)(C(=O)OC)[C@H](OC(C)=O)[C@]5(CC)C=CCN6CC[C@]43[C@@H]65)C2)C1 [vinblastine, Vinblastine]
[1]; dermarolled skin (32 roller passages)
  vinblastine skin absorption (amount in receptor fluid): 0.6 nmol
[1]; dermarolled versus intact skin
  increase of vinblastine skin absorption by skin perforation by dermaroller: about 200 times
[1]; intact human skin, 2.5 mM [3H]-vinblastine 10 μL/cm2, 16 hours, receptor fluid
  vinblastine skin absorption, share of the applied dose: 0.001 % of the applied dose
[1]; intact human skin
  vinblastine skin absorption (amount in receptor fluid): 0.003 nmol
[1]; stripped versus intact skin
  increase of vinblastine skin absorption by tape stripping: about 20 times
[1]; tape stripped skin (30 stripes)
  vinblastine skin absorption (amount in receptor fluid): 0.07 nmol

## COc1ccc(CCN(C)CCCC(C#N)(c2ccc(OC)c(OC)c2)C(C)C)cc1OC (stereo not shown) [verapamil, Verapamil]
Human skin samples [2]
  effect of Verapamil on Rhodamine 123 fluorescence intensity in skin sections: No difference in fluorescence intensity

## CCCCC/C=C\C\C=C/C=C/C=C/[C@@H](SC[C@H](NC(=O)CC[C@H](N)C(=O)O)C(=O)NCC(=O)O)[C@@H](O)CCCC(=O)O [LTC4, leukotriene-C4]
Human skin samples [3]
  cutaneous absorption of LTC4, share of the applied dose: about 1.7 % of the applied dose
Human skin samples [4]; skin sections without treatment with the inhibitor
  cutaneous distribution of LTC4 (autoradiography signal): a radioactive signal related to LTC4 is observed in the uppermost part of the skin section corresponding to the epidermis

## CN(C)C(=O)CCSC(SCCC(=O)O)c1cccc(/C=C/c2ccc3ccc(Cl)cc3n2)c1 (stereo not shown) [MK571]
Human skin samples [4]; skin treated with the inhibitor MK571
  effect of MK571 on cutaneous distribution of LTC4 (autoradiography signal): appreciable increase in the intensity of the signal related to LTC4
